The experiment has as its system human pancreatic cancer cells (BXPC-3 and PANC-1). Put plainly: MTS cell viability, pancreatic cancer cells. The experiment is classed as cell-based. Here is the method:
Cell Lines, Cell Culture, and Reagents. PANC-1, BXPC-3 and CAPAN-1, SKOV-3, MCF7, MDA-MD-231 cells were obtained from ATCC and maintained in DMEM, RPMI-1640 and IMDM supplemented with 10% fetal calf serum penicillin (100 units/mL), and streptomycin (100 μg/mL) at 37° C. with 5% CO2 in a humidified incubator. JIMT-1 cells were purchased from AddexBio Inc, USA (catalog number: C0006005) and maintained in 10% FBS and antibiotic supplemented DMEM. […] The reaction was monitored using thin-layer chromatography plates with DCM-MeOH or pure ethyl acetate as eluent. Spots were monitored in a UV chamber. […] ICM scores for each compound and their poses were calculated and compared with FCF. […] Cell viability of PANC-1, BXPC-3 and CAPAN-1 pancreatic cancer cells treated with UR214-9 was measured using the Cell Titre96R Aqueous One Solution Cell Proliferation Assay (Promega Corp., catalog number: G3580) following the procedure published earlier. […] The cells were analyzed by a 305 flow cytometer and relative live and dead cell population was calculated by inputting equal number of cells in both vehicle and control group.

In the case of `O=C(Nc1cc(Cl)nc(Cl)c1)Nc1cccc(SC(F)(F)F)c1F` [UR214-9], for the setting “BXPC-3 and PANC-1, 72 hours of treatment”, the viability entry is recorded as “reduced the viability”. The “growth (MTS assay), dose dependently” value (BXPC-3 and PANC-1, by 48th hour of drug exposure) was “reduced the growth”.

The values above are taken from patent US12433876B2, “Septin inhibitors for treatment of cancers” (UNIVERSITY OF ROCHESTER, priority 2019, dated 2025).
